Columns and labels:
[1] = Particle size distribution of ORZY-05 by static automated imaging (Morphologi 4); type: physicochemical; details: ORZY-05 particles
Protocol: The materials and methods were essentially as in Example 7. In the present example, the cooling time of the cooling step of from 30° C. to 0° C. subsequent to addition of acetone was varied and its influence on the particle size of ORZY-05 was determined. The cooling time is a measure of how long it takes to reach 0° C. from 30° C. The particle size distribution (PSD) data shown in Table 3 were acquired using static automated imaging (Morphology 4).
Morphologi 4: The Particle size distribution of Arimoclomol citrate (ORZY-05) was also measured using a Malvern Morphologi 4 equipment.
Wet measurement was used for the needle shaped particles. […] Measurements were made using a thin path wet cell (75*75 mm). Samples were prepared by adding 20 mL of dispersant to 10 mg of API, followed by 30 s of stirring and 2 min of sonication in order to break the agglomerates. A microscope magnifier of X10 or X20 was used, and segmentation sharp edge and/or thresholding was used to improve the focus microscope focus.

[2] = Particle size distribution of ORZY-05 by Malvern Mastersizer 3000; type: physicochemical; details: ORZY-05 particles, Malvern Mastersizer 3000, volume distribution
Protocol: Further batches of ORZY-05 were prepared essentially as in Example 7 and the ORZY-05 particles were examined using Malvern Mastersizer 3000 as described in Example 11.
Malvern Mastersizer 3000: Particle size distribution of Arimoclomol citrate (ORZY-05) was determined by light scattering using a Malvern Mastersizer 3000 particle size analyzer (Malvern Instruments Ltd, Grovewood Road, Malvern, Worcestershire WR14 1XZ, United Kingdom) with a Hydro MV wet-dispersion unit attached. 2-Propanol with 1.8 g/L SPAN-85 additive was used as a dispersion medium (“dispersant”) and added to the dispersion unit. Prior to sample addition, the background counts of the system were determined by circulating the dispersant through the measurement cell under measurement conditions (2500 rpm stirrer speed). Samples for analysis were prepared by adding a suitable amount of Arimoclomol citrate to a 10 mL vial and pre-dispersing it with dispersant under light agitation for a few seconds. The pre-dispersed sample was then pipetted into the Hydro MV dispersion unit filled with dispersant to meet a laser obscuration range of 10-15%. A single-use PE pipette was used for this and representative sampling from the 10 mL vial was ensured by continuous agitation. […] Volume distributions were obtained and the D10, D50 and D90 were calculated from these distributions and reported. For each sample, a single sample preparation was analyzed using red light measurement only. Upon measurement completion, the sample cell was emptied and cleaned.

O=C(O)CC(O)(CC(=O)O)C(=O)O.[O-][n+]1cccc(/C(Cl)=N/OC[C@H](O)CN2CCCCC2)c1 [17-001, arimoclomol citrate]
Number CE Diameter D10 [1]: 0.60 μm
Number CE Diameter D50 [1]: 1.60 μm
Number CE Diameter D90 [1]: 9.40 μm
Number CE Diameter Mean [1]: 3.70 μm
Number Length D10 [1]: 1.70 μm
Number Length D50 [1]: 4.70 μm
Number Length D90 [1]: 22.00 μm
Volume CE Diameter D10 [1]: 9.40 μm
Volume CE Diameter D50 [1]: 24.70 μm
Volume CE Diameter D90 [1]: 44.40 μm
Volume CE diameter D[3,2] [1]: 17.70 μm
Volume CE diameter D[4,3] [1]: 25.70 μm

O=C(O)CC(O)(CC(=O)O)C(=O)O.[O-][n+]1cccc(/C(Cl)=N/OC[C@H](O)CN2CCCCC2)c1 [17-002, arimoclomol citrate]
Number CE Diameter D10 [1]: 0.70 μm
Number CE Diameter D50 [1]: 2.20 μm
Number CE Diameter D90 [1]: 7.40 μm
Number CE Diameter Mean [1]: 3.40 μm
Number Length D10 [1]: 1.10 μm
Number Length D50 [1]: 3.20 μm
Number Length D90 [1]: 13.90 μm
Volume CE Diameter D10 [1]: 6.20 μm
Volume CE Diameter D50 [1]: 14.00 μm
Volume CE Diameter D90 [1]: 35.00 μm
Volume CE diameter D[3,2] [1]: 11.40 μm
Volume CE diameter D[4,3] [1]: 17.10 μm

O=C(O)CC(O)(CC(=O)O)C(=O)O.[O-][n+]1cccc(/C(Cl)=N/OC[C@H](O)CN2CCCCC2)c1 [17-003, arimoclomol citrate]
Number CE Diameter D10 [1]: 1.00 μm
Number CE Diameter D50 [1]: 2.00 μm
Number CE Diameter D90 [1]: 5.80 μm
Number CE Diameter Mean [1]: 2.90 μm
Number Length D10 [1]: 1.40 μm
Number Length D50 [1]: 3.20 μm
Number Length D90 [1]: 10.50 μm
Volume CE Diameter D10 [1]: 4.60 μm
Volume CE Diameter D50 [1]: 11.10 μm
Volume CE Diameter D90 [1]: 26.70 μm
Volume CE diameter D[3,2] [1]: 8.80 μm
Volume CE diameter D[4,3] [1]: 13.70 μm

O=C(O)CC(O)(CC(=O)O)C(=O)O.[O-][n+]1cccc(/C(Cl)=N/OC[C@H](O)CN2CCCCC2)c1 [17-004, arimoclomol citrate]
Number CE Diameter D10 [1]: 0.80 μm
Number CE Diameter D50 [1]: 2.00 μm
Number CE Diameter D90 [1]: 23.50 μm
Number CE Diameter Mean [1]: 6.70 μm
Number Length D10 [1]: 1.50 μm
Number Length D50 [1]: 4.00 μm
Number Length D90 [1]: 40.70 μm
Volume CE Diameter D10 [1]: 24.60 μm
Volume CE Diameter D50 [1]: 38.90 μm
Volume CE Diameter D90 [1]: 52.20 μm
Volume CE diameter D[3,2] [1]: 34.20 μm
Volume CE diameter D[4,3] [1]: 38.80 μm

O=C(O)CC(O)(CC(=O)O)C(=O)O.[O-][n+]1cccc(/C(Cl)=N/OC[C@H](O)CN2CCCCC2)c1 [18-001, arimoclomol citrate]
Number CE Diameter D10 [1]: 0.80 μm
Number CE Diameter D50 [1]: 2.50 μm
Number CE Diameter D90 [1]: 10.70 μm
Number CE Diameter Mean [1]: 4.60 μm
Number Length D10 [1]: 1.80 μm
Number Length D50 [1]: 4.10 μm
Number Length D90 [1]: 16.80 μm
Volume CE Diameter D10 [1]: 11.20 μm
Volume CE Diameter D50 [1]: 26.40 μm
Volume CE Diameter D90 [1]: 37.60 μm
Volume CE diameter D[3,2] [1]: 19.50 μm
Volume CE diameter D[4,3] [1]: 25.40 μm

O=C(O)CC(O)(CC(=O)O)C(=O)O.[O-][n+]1cccc(/C(Cl)=N/OC[C@H](O)CN2CCCCC2)c1 [18-002, arimoclomol citrate]
Number CE Diameter D10 [1]: 0.90 μm
Number CE Diameter D50 [1]: 2.20 μm
Number CE Diameter D90 [1]: 10.10 μm
Number CE Diameter Mean [1]: 4.20 μm
Number Length D10 [1]: 1.50 μm
Number Length D50 [1]: 3.60 μm
Number Length D90 [1]: 16.60 μm
Volume CE Diameter D10 [1]: 10.90 μm
Volume CE Diameter D50 [1]: 22.70 μm
Volume CE Diameter D90 [1]: 36.00 μm
Volume CE diameter D[3,2] [1]: 17.90 μm
Volume CE diameter D[4,3] [1]: 23.30 μm

O=C(O)CC(O)(CC(=O)O)C(=O)O.[O-][n+]1cccc(/C(Cl)=N/OC[C@H](O)CN2CCCCC2)c1 [18-003, arimoclomol citrate]
Number CE Diameter D10 [1]: 4.40 μm
Number CE Diameter D50 [1]: 21.80 μm
Number CE Diameter D90 [1]: 38.20 μm
Number CE Diameter Mean [1]: 22.10 μm
Number Length D10 [1]: 8.00 μm
Number Length D50 [1]: 29.90 μm
Number Length D90 [1]: 56.10 μm
Volume CE Diameter D10 [1]: 24.00 μm
Volume CE Diameter D50 [1]: 37.60 μm
Volume CE Diameter D90 [1]: 58.30 μm
Volume CE diameter D[3,2] [1]: 35.40 μm
Volume CE diameter D[4,3] [1]: 41.10 μm

O=C(O)CC(O)(CC(=O)O)C(=O)O.[O-][n+]1cccc(/C(Cl)=N/OC[C@H](O)CN2CCCCC2)c1 [18-004, arimoclomol citrate]
Number CE Diameter D10 [1]: 3.70 μm
Number CE Diameter D50 [1]: 12.00 μm
Number CE Diameter D90 [1]: 29.20 μm
Number CE Diameter Mean [1]: 14.90 μm
Number Length D10 [1]: 5.30 μm
Number Length D50 [1]: 15.40 μm
Number Length D90 [1]: 40.00 μm
Volume CE Diameter D10 [1]: 19.40 μm
Volume CE Diameter D50 [1]: 39.80 μm
Volume CE Diameter D90 [1]: 81.20 μm
Volume CE diameter D[3,2] [1]: 33.90 μm
Volume CE diameter D[4,3] [1]: 45.90 μm

O=C(O)CC(O)(CC(=O)O)C(=O)O.[O-][n+]1cccc(/C(Cl)=N/OC[C@H](O)CN2CCCCC2)c1 [compound 2001, arimoclomol citrate]
D10 [2]: 17.2 μm
D50 [2]: 47.2 μm
D90 [2]: 112 μm

O=C(O)CC(O)(CC(=O)O)C(=O)O.[O-][n+]1cccc(/C(Cl)=N/OC[C@H](O)CN2CCCCC2)c1 [compound 2002, arimoclomol citrate]
D10 [2]: 4.33 μm
D50 [2]: 12.5 μm
D90 [2]: 37.9 μm

O=C(O)CC(O)(CC(=O)O)C(=O)O.[O-][n+]1cccc(/C(Cl)=N/OC[C@H](O)CN2CCCCC2)c1 [compound 2003, arimoclomol citrate]
D10 [2]: 4.65 μm
D50 [2]: 13.5 μm
D90 [2]: 40.7 μm

O=C(O)CC(O)(CC(=O)O)C(=O)O.[O-][n+]1cccc(/C(Cl)=N/OC[C@H](O)CN2CCCCC2)c1 [compound 2004, arimoclomol citrate]
D10 [2]: 10.2 μm
D50 [2]: 34.8 μm
D90 [2]: 87 μm

O=C(O)CC(O)(CC(=O)O)C(=O)O.[O-][n+]1cccc(/C(Cl)=N/OC[C@H](O)CN2CCCCC2)c1 [compound 2005, arimoclomol citrate]
D10 [2]: 11.2 μm
D50 [2]: 35.6 μm
D90 [2]: 82.6 μm

O=C(O)CC(O)(CC(=O)O)C(=O)O.[O-][n+]1cccc(/C(Cl)=N/OC[C@H](O)CN2CCCCC2)c1 [compound 2006, arimoclomol citrate]
D10 [2]: 11.6 μm
D50 [2]: 35.6 μm
D90 [2]: 77.7 μm

— patent US20230416224A1, “PROCESSES FOR PREPARING ARIMOCLOMOL CITRATE AND INTERMEDIATES THEREOF” (ZEVRA DENMARK A/S, priority 2020, published 2023)
